System: Eschericia coli strain ATCC25922
Test: standard microdilution assay to determine minimum inhibitory concentrations (MICs)
Assay type: cell-based
Conditions: Escherichia coli, ATCC25922, Eschericia coli strain ATCC25922, standard microdilution assay; read-out: E. coli ATCC25922 MIC
Description: Minimum inhibitory concentrations (MICs) are determined by the microdilution method, typically in a final volume of 100 microliters, according to protocols outlined by The Clinical and Laboratory Standards Institute [CLSI; formerly the National Committee for Clinical Laboratory Standards (NCCLS)]. See CLSI: Methods for dilution antimicrobial susceptibility tests for bacteria that grow aerobically; approved standard-fifth edition. Wayne, Pa.: NCCLS; 2000. The assays can be also be performed in microtiter trays according to conventional methodologies as published by the CLSI. See CLSI. Methods for Dilution Antimicrobial Susceptibility Tests for Bacteria That Grow Aerobically; Approved Standard-Seventh Edition. CLSI Document M7-A7 [ISBN 1-56238-587-9] CLSI, 940 West Valley Road, Suite 1400, Wayne Pa. 19087-1898 USA, 2006).
The compounds of the present invention were tested for antimicrobial activity. The compounds were run against Eschericia coli strain ATCC25922 using a standard microdilution assay to determine minimum inhibitory concentrations (MICs). […] A “N/A” means that data is unavailable. It will be recognized by one skilled in the art that the compounds can be assessed against other bacterial organisms and that the presentation of data for activity against Eschericia coli is illustrative and in no way is intended to limit the scope of the present invention. The compounds of the present invention can be assayed against a range of other microorganisms depending upon the performance activity desired to be gathered. Furthermore, the “+”, “−”, and “N/A” representation and the selection of a cutoff value of 16 micrograms/ml is also illustrative and in no way is intended to limit the scope of the present invention.

Row | Compound | MIC
1 | NCCCN(Cc1ccc(-c2c[nH]c(NC(=O)Nc3cc(F)c(F)cc3F)nc2=O)cc1)Cc1ncc[nH]1 [Compound 325] | > 16 µg/mL
2 | NCCCN1CC2(CCN(c3c[nH]c(NC(=O)Nc4ccccc4OC(F)(F)F)nc3=O)C2)C1 [Compound 527] | > 16 µg/mL
3 | NCCN(CCN)CCCN1CC=C(n2ccc(NC(N)=O)nc2=O)CC1 [Compound 153] | > 16 µg/mL
4 | O=C(Nc1nc(=O)c(-c2ccc(CNCc3ccncc3)cc2)c[nH]1)Nc1ccccc1OC(F)(F)F [Compound 319] | > 16 µg/mL
5 | NCCCNCc1ccc(-c2c[nH]c(NC(=O)Nc3ccc(Cl)cc3Cl)nc2=O)cc1F [Compound 496] | < 16 µg/mL
6 | N=C(N)NCCCN1CCN(c2c[nH]c(NC(=O)Nc3ccccc3OC(F)(F)F)nc2=O)CC1 [Compound 422] | > 16 µg/mL
7 | N=C(N)NCCCN(CCCN)Cc1ccc(-c2c[nH]c(NC(=O)NCCc3ccc(Cl)cc3Cl)nc2=O)cc1 [Compound 476] | > 16 µg/mL
8 | NCCCNCc1ccc(-c2c[nH]c(NC(=O)Nc3ccc(Cl)c(C(F)(F)F)c3)nc2=O)cc1F [Compound 459] | > 16 µg/mL
9 | COc1ccc2nc(Nc3nc(=O)c(-c4ccc(CN(CCCN)CCCN)c(F)c4)c[nH]3)[nH]c2c1 [Compound 361] | < 16 µg/mL
10 | N=C(N)NCCC[C@H](N)CCCn1cnc(NC(N)=O)nc1=O [Compound 133] | > 16 µg/mL
11 | NCCCNCc1ccc(-c2c[nH]c(NC(=O)Nc3cc(F)cc(C(F)(F)F)c3)nc2=O)cc1F [Compound 482] | > 16 µg/mL
12 | CN(C)CCN1CCN(c2ccc(NC(=O)Nc3ccn(CCCC(CCCNC(=N)N)NCCCN)c(=O)n3)cc2)CC1 (centres unmarked) [Compound 208] | < 16 µg/mL
13 | NC(=O)NC1CCN(CCC[C@@H](N)CCCO)C(=O)N1 (some centres unmarked) [Compound 136] | > 16 µg/mL
14 | NCCCN(CCCN)Cc1ccc(-c2c[nH]c(Nc3nc4cc(F)c(F)cc4[nH]3)nc2=O)cc1 [Compound 468] | < 16 µg/mL
15 | NCc1ccc(-c2c[nH]c(NC(=O)Nc3ccccc3OC(F)(F)F)nc2=O)cc1C(F)(F)F [Compound 248] | > 16 µg/mL
16 | N=C(N)NCCCC(CCCn1ccc(NC(=O)Nc2ccc(N3CCCCC3)cc2)nc1=O)NCCCN (centres unmarked) [Compound 186] | > 16 µg/mL
17 | CN(C)CCN1CCN(c2ccc(NC(=O)Nc3nc(=O)c(-c4ccc(CN(CCCN)CCCN)cc4)c[nH]3)cc2)CC1 [Compound 210] | < 16 µg/mL
18 | O=C(Nc1nc(=O)c(-c2ccc(CNCCCc3cccnc3)cc2)c[nH]1)Nc1cc(F)c(F)cc1F [Compound 373] | > 16 µg/mL
19 | NCCCN(CCCNC(N)=O)Cc1ccc(-c2c[nH]c(NC(=O)Nc3cc(F)c(F)cc3F)nc2=O)cc1 [Compound 444] | > 16 µg/mL
20 | N=C(N)NCCC[C@@H](CCCn1ccc(NC(=O)c2ccc(Cl)cc2)nc1=O)NCCCN [Compound 155] | > 16 µg/mL
21 | NCCCNCc1ccc(-c2c[nH]c(NC(=O)NCCc3ccc(Cl)c(Cl)c3)nc2=O)cc1F [Compound 451] | < 16 µg/mL
22 | NCCCCNC1CCN(c2c[nH]c(NC(=O)Nc3cc(F)c(F)cc3F)nc2=O)CC1 [Compound 619] | > 16 µg/mL
23 | NCCCNCc1c(F)cc(-c2c[nH]c(NC(=O)Nc3cccc(Cl)c3Cl)nc2=O)cc1F [Compound 286] | > 16 µg/mL

Row | Compound | MIC
24 | NCCCNCc1ccc(-c2c[nH]c(Nc3nc4cc(F)c(F)cc4[nH]3)nc2=O)cc1F [Compound 439] | < 16 µg/mL
25 | O=C(Nc1nc(=O)c(-c2ccc(CNCC3CC3)cc2)c[nH]1)Nc1ccccc1OC(F)(F)F [Compound 274] | > 16 µg/mL
26 | NCCCNCc1ccc(-c2c[nH]c(NC(=O)Nc3ccccc3OC(F)(F)F)nc2=O)cc1 [Compound 278] | < 16 µg/mL
27 | NCCCNCc1ccc(-c2c[nH]c(NC(=O)Nc3cc(Cl)c(Cl)cc3Cl)nc2=O)cc1F [Compound 388] | > 16 µg/mL
28 | NCCCNCc1ccc(-c2c[nH]c(NC(=O)NCCCc3ccccc3OC(F)(F)F)nc2=O)cc1F [Compound 539] | < 16 µg/mL
29 | NCCCNCc1ccc(-c2c[nH]c(NC(=O)Nc3cccc(-n4cccc4)c3)nc2=O)cc1F [Compound 418] | > 16 µg/mL
30 | NCCCNCc1ccc(-c2c[nH]c(NC(=O)Nc3cccc(Cl)c3F)nc2=O)cc1F [Compound 450] | < 16 µg/mL
31 | NCCCN(CCC(=O)O)Cc1ccc(-c2c[nH]c(NC(=O)Nc3ccccc3OC(F)(F)F)nc2=O)cc1 [Compound 321] | > 16 µg/mL
32 | Cc1nc(-c2cccc(NC(=O)Nc3ccn(CCC[C@H](CCCNC(=N)N)NCCCN)c(=O)n3)c2)cs1 [Compound 166] | > 16 µg/mL
33 | N#Cc1ccc(NC(=O)Nc2nc(=O)c(-c3ccc(CNCCCN)c(F)c3)c[nH]2)cc1 [Compound 386] | > 16 µg/mL
34 | CN(C)C(=O)CN1CCN(c2ccc(NC(=O)Nc3ccn(CCC[C@H](CCCNC(=N)N)NCCCN)c(=O)n3)cc2)CC1 [Compound 214] | > 16 µg/mL
35 | NCCCN(CCCN)Cc1ccc(-c2c[nH]c(NC(N)=O)nc2=O)cc1 [Compound 149] | > 16 µg/mL
36 | O=C(Nc1nc(=O)c(-c2ccc(CNCCc3ccncc3)cc2)c[nH]1)Nc1ccccc1OC(F)(F)F [Compound 323] | > 16 µg/mL
37 | N=C(N)NCCCNCc1ccc(-c2c[nH]c(NC(=O)NC3CN(Cc4cc(F)c(F)cc4F)C3)nc2=O)cc1 [Compound 712] | > 16 µg/mL
38 | N=C(N)NCCCN(CCC1CC1)Cc1ccc(-c2c[nH]c(NC(=O)Nc3cc(F)c(F)cc3F)nc2=O)cc1 [Compound 680] | > 16 µg/mL
39 | CSCCCNCc1ccc(-c2c[nH]c(NC(=O)Nc3ccccc3OC(F)(F)F)nc2=O)cc1 [Compound 282] | > 16 µg/mL
40 | N=C(N)NCCCCN1CCC(c2c[nH]c(NC(=O)Nc3ccccc3OC(F)(F)F)nc2=O)CC1 [Compound 548] | > 16 µg/mL
41 | COc1ccc([N+](=O)[O-])cc1NC(=O)Nc1nc(=O)c(-c2ccc(CNCCCN)c(F)c2)c[nH]1 [Compound 416] | > 16 µg/mL
42 | NCCCN(CCCN)Cc1ccc(-n2ccc(NC(N)=O)nc2=O)cc1 [Compound 145] | > 16 µg/mL
43 | CSCCNCc1ccc(-c2c[nH]c(NC(=O)Nc3ccccc3OC(F)(F)F)nc2=O)cc1Cl [Compound 260] | > 16 µg/mL
44 | N=C(N)NCCCC[C@@H](N)CCn1ccc(NC(N)=O)nc1=O [Compound 124] | > 16 µg/mL
45 | N=C(N)NCCCCCN1CCN(c2c[nH]c(Nc3nc4ccccc4[nH]3)nc2=O)CC1 [Compound 515] | > 16 µg/mL
46 | O=C(Nc1nc(=O)c(-c2ccc(CNCc3ccncc3)cc2)c[nH]1)Nc1cc(F)c(F)cc1F [Compound 329] | > 16 µg/mL

Row | Compound | MIC
47 | NCCCNCc1ccc(-c2c[nH]c(Nc3nc4cc(F)c(F)cc4o3)nc2=O)c(F)c1 [Compound 467] | < 16 µg/mL
48 | CN(CCCNCc1ccc(-c2c[nH]c(NC(=O)Nc3ccccc3OC(F)(F)F)nc2=O)cc1)C(=N)N [Compound 346] | < 16 µg/mL
49 | N=C(N)NCCN(CCCN)Cc1ccc(-c2c[nH]c(NC(N)=O)nc2=O)cc1 [Compound 170] | > 16 µg/mL
50 | NCCCNCc1c(F)cc(-c2c[nH]c(NC(=O)Nc3ccccc3OC(F)(F)F)nc2=O)cc1F [Compound 285] | > 16 µg/mL
51 | NCCCNCc1ccc(-c2c[nH]c(NC(=O)Nc3cc(N)ccc3Cl)nc2=O)cc1F [Compound 483] | > 16 µg/mL
52 | N=C(N)NCCC[C@@H](CCCn1ccc(NC(=O)NS(=O)(=O)c2ccc(F)cc2)nc1=O)NCCCN [Compound 147] | > 16 µg/mL
53 | NCCCC[C@@H](N)CCn1ccc(N)nc1=O [Compound 115] | > 16 µg/mL
54 | CCN[C@@H]1CCCCC1NC(=O)Nc1nc(=O)c(-c2ccc(CN)cc2)c[nH]1 (some centres unmarked) [Compound 1302] | > 16 µg/mL
55 | NCCCNCc1ccc(-c2c[nH]c(NC(=O)Nc3ccc(F)c(C(F)(F)F)c3)nc2=O)cc1F [Compound 413] | > 16 µg/mL
56 | CN1CCN(c2ccc(NC(=O)Nc3ccn(-c4ccc(CN(CCCN)CCCNC(=N)N)cc4)c(=O)n3)cc2)CC1 [Compound 222] | < 16 µg/mL
57 | Cn1ccnc1CNCc1ccc(-c2c[nH]c(NC(=O)Nc3ccccc3OC(F)(F)F)nc2=O)cc1 [Compound 290] | > 16 µg/mL
58 | N=C(N)NCCCCCN1CCN(c2c[nH]c(NC(=O)Nc3ccccc3OC(F)(F)F)nc2=O)CC1 [Compound 519] | > 16 µg/mL
59 | CN(C)CCCOc1ccccc1NC(=O)Nc1nc(=O)c(-c2ccc(CNCCCN)cc2)c[nH]1 [Compound 1291] | > 16 µg/mL
60 | NCCCN1CCN(c2c[nH]c(NC(=O)Nc3ccccc3OC(F)(F)F)nc2=O)CC1 [Compound 425] | > 16 µg/mL
61 | NCCCNC(CCCN)c1ccc(-n2ccc(NC(N)=O)nc2=O)cc1 (centres unmarked) [Compound 144] | > 16 µg/mL
62 | CN1CCN(c2ccc(NC(=O)Nc3ccn(CCCC(CCCNC(=N)N)NCCCN)c(=O)n3)cc2)CC1 (centres unmarked) [Compound 185] | < 16 µg/mL
63 | NCCCN(CCC1CC1)Cc1ccc(-c2c[nH]c(NC(=O)Nc3cc(F)c(F)cc3F)nc2=O)cc1 [Compound 401] | < 16 µg/mL
64 | NCCC[C@H](N)CCCn1cnc(N)nc1=O [Compound 113] | > 16 µg/mL
65 | CCOc1ccc(NC(=O)Nc2nc(=O)c(-c3ccc(CNCCCN)c(F)c3)c[nH]2)c([N+](=O)[O-])c1 [Compound 414] | > 16 µg/mL
66 | NCCCN1CCC(c2c[nH]c(NC(=O)Nc3ccccc3OC(F)(F)F)nc2=O)CC1 [Compound 455] | > 16 µg/mL
67 | CN(C)CCN1CCN(c2ccc(C(=O)Nc3ccn(CCC[C@H](CCCNC(=N)N)NCCCN)c(=O)n3)cc2)CC1 [Compound 213] | > 16 µg/mL
68 | NCc1ccc(-c2c[nH]c(NC(=O)NC3CCCN(CCO)C3)nc2=O)cc1 (centres unmarked) [Compound 1317] | > 16 µg/mL

Reference: patent US9845297B2, “Antimicrobial compounds and methods of making and using the same” (Melinta Therapeutics, Inc., priority 2009, dated 2017)
